Reference: ChEMBL document CHEMBL1201862, “PubChem BioAssay data set” (2004)
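Grown in 96-well plates, cells were treated for 48 hours with each compound at five concentrations. Insufficient inhibition: endpoint recorded as highest concentration tested. GI50 marks 50% less growth.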 Active and inactive are the calls of the source. Rule as the data show it: active = GI50 up to about 1.1 µM and inactive = higher.

Legend:
Assay in all cases: NCI tumour cell line growth inhibition, 48 h
[1] = tested on: PC-3
[2] = tested on: EKVX
[3] = tested on: SNB-75
[4] = tested on: SK-MEL-2
[5] = tested on: KM12
[6] = tested on: SK-MEL-28
[7] = tested on: A498
[8] = tested on: COLO 205
[9] = tested on: 786-0
[10] = tested on: SF-295
[11] = tested on: MDA-MB-435
[12] = tested on: IGROV-1
[13] = tested on: SK-OV-3
[14] = tested on: SF-268
[15] = tested on: UACC-62
[16] = tested on: HOP-92
[17] = tested on: MOLT-4
[18] = tested on: Malme-3M
[19] = tested on: T47D
[20] = tested on: SNB-19
[21] = tested on: NCI-H522
[22] = tested on: OVCAR-8
[23] = tested on: CAKI-1
[24] = tested on: HOP-62
[25] = tested on: NCI/ADR-RES
[26] = tested on: OVCAR-3
[27] = tested on: UACC-257
[28] = tested on: UO-31
[29] = tested on: SF-539
[30] = tested on: HCT-116
[31] = tested on: K562
[32] = tested on: OVCAR-4
[33] = tested on: SW-620
[34] = tested on: CCRF-CEM
[35] = tested on: HT-29
[36] = tested on: BT-549
[37] = tested on: MDA-N
[38] = tested on: HCC 2998
[39] = tested on: NCI-H23
[40] = tested on: TK-10
[41] = tested on: DU-145
[42] = tested on: MDA-MB-231
[43] = tested on: SR
[44] = tested on: Hs-578T
[45] = tested on: RPMI-8226
[46] = tested on: SK-MEL-5
[47] = tested on: NCI-H460
[48] = tested on: OVCAR-5
[49] = tested on: RXF 393
[50] = tested on: A549
[51] = tested on: NCI-H226
[52] = tested on: LOX IMVI
[53] = tested on: HCT-15
[54] = tested on: MCF7
[55] = tested on: ACHN
[56] = tested on: SN12C
[57] = tested on: U-251
[58] = tested on: HL-60
[59] = tested on: M14
[60] = tested on: DMS-273
[61] = tested on: XF498
[62] = tested on: LXFL 529
[63] = tested on: DMS-114
[64] = tested on: KM-20L2
[65] = tested on: M19-MEL

O=S(=O)(O)C(CO)c1ccccc1.O=S(=O)(O)Cc1ccccc1 (stereo not given)
GI50 [1]: > 100 µM (inactive) | GI50 [2]: > 100 µM (inactive) | GI50 [3]: > 100 µM (inactive) | GI50 [4]: > 100 µM (inactive) | GI50 [5]: > 100 µM (inactive) | GI50 [6]: > 100 µM (inactive) | GI50 [7]: > 100 µM (inactive) | GI50 [8]: > 100 µM (inactive) | GI50 [9]: > 100 µM (inactive) | GI50 [10]: > 100 µM (inactive) | GI50 [11]: > 100 µM (inactive) | GI50 [12]: > 100 µM (inactive) | GI50 [13]: > 100 µM (inactive) | GI50 [14]: > 100 µM (inactive) | GI50 [15]: > 100 µM (inactive) | GI50 [16]: > 100 µM (inactive) | GI50 [17]: > 100 µM (inactive) | GI50 [18]: > 100 µM (inactive) | GI50 [19]: > 100 µM (inactive) | GI50 [20]: > 100 µM (inactive) | GI50 [21]: > 100 µM (inactive) | GI50 [22]: > 100 µM (inactive) | GI50 [23]: > 100 µM (inactive) | GI50 [24]: > 100 µM (inactive) | GI50 [25]: > 100 µM (inactive) | GI50 [26]: > 100 µM (inactive) | GI50 [27]: > 100 µM (inactive) | GI50 [28]: > 100 µM (inactive) | GI50 [29]: > 100 µM (inactive) | GI50 [30]: > 100 µM (inactive) | GI50 [31]: > 100 µM (inactive) | GI50 [32]: > 100 µM (inactive) | GI50 [33]: > 100 µM (inactive) | GI50 [34]: 19.6 µM (inactive) | GI50 [35]: > 100 µM (inactive) | GI50 [36]: > 100 µM (inactive) | GI50 [37]: > 100 µM (inactive) | GI50 [38]: > 100 µM (inactive) | GI50 [39]: > 100 µM (inactive) | GI50 [40]: > 100 µM (inactive) | GI50 [41]: > 100 µM (inactive) | GI50 [42]: > 100 µM (inactive) | GI50 [43]: > 100 µM (inactive) | GI50 [44]: 96.4 µM (inactive) | GI50 [45]: > 100 µM (inactive) | GI50 [46]: > 100 µM (inactive) | GI50 [47]: > 100 µM (inactive) | GI50 [48]: > 100 µM (inactive) | GI50 [49]: > 100 µM (inactive) | GI50 [50]: > 100 µM (inactive) | GI50 [51]: > 100 µM (inactive) | GI50 [52]: > 100 µM (inactive) | GI50 [53]: > 100 µM | GI50 [54]: > 100 µM (inactive) | GI50 [55]: > 100 µM (inactive) | GI50 [56]: > 100 µM (inactive) | GI50 [57]: > 100 µM (inactive) | GI50 [58]: 5.35 µM (inactive) | GI50 [59]: > 100 µM (inactive)

CCCCCCCCCC(=O)NC(Cc1ccc(O)cc1)C(=O)NCCCNCCCCNCCCNC(=O)[C@@H](N)CCCN=C(N)N (stereo not given in full)
GI50 [2]: 30.1 µM (inactive) | GI50 [5]: 20.9 µM (inactive) | GI50 [6]: 19.2 µM (inactive) | GI50 [8]: 13.8 µM (inactive) | GI50 [9]: 61.7 µM (inactive) | GI50 [10]: 29 µM (inactive) | GI50 [12]: 17.9 µM (inactive) | GI50 [60]: 20.9 µM (inactive) | GI50 [61]: > 100 µM (inactive) | GI50 [13]: 36.6 µM (inactive) | GI50 [14]: 82.2 µM (inactive) | GI50 [17]: > 100 µM (inactive) | GI50 [18]: 20.4 µM (inactive) | GI50 [20]: 70.1 µM (inactive) | GI50 [21]: 28.8 µM (inactive) | GI50 [22]: 33.6 µM (inactive) | GI50 [24]: 22.9 µM (inactive) | GI50 [26]: > 100 µM (inactive) | GI50 [27]: 44.5 µM (inactive) | GI50 [28]: 31.9 µM (inactive) | GI50 [29]: 11 µM (inactive) | GI50 [30]: > 100 µM (inactive) | GI50 [31]: 29.9 µM (inactive) | GI50 [33]: > 100 µM (inactive) | GI50 [62]: 77.3 µM (inactive) | GI50 [34]: 84.9 µM (inactive) | GI50 [35]: > 100 µM (inactive) | GI50 [63]: 61.8 µM (inactive) | GI50 [38]: 27.7 µM (inactive) | GI50 [39]: 57.7 µM (inactive) | GI50 [40]: 46.9 µM (inactive) | GI50 [43]: 73.3 µM (inactive) | GI50 [45]: 64.9 µM (inactive) | GI50 [64]: > 100 µM (inactive) | GI50 [46]: 12.8 µM (inactive) | GI50 [47]: 15.5 µM (inactive) | GI50 [65]: 50.2 µM (inactive) | GI50 [50]: 76 µM (inactive) | GI50 [51]: 61.2 µM (inactive) | GI50 [52]: 84.1 µM (inactive) | GI50 [53]: 86.7 µM | GI50 [55]: 18.9 µM (inactive) | GI50 [56]: 60.7 µM (inactive) | GI50 [57]: > 10 µM (inactive) | GI50 [58]: 16.2 µM (inactive) | GI50 [59]: > 100 µM (inactive)
